Laboratory results from patent US20230028463A1, “METHOD FOR PRODUCING ACTINIC RAY-SENSITIVE OR RADIATION-SENSITIVE RESIN COMPOSITION, PATTERN FORMATION METHOD, AND METHOD FOR MANUFACTURING ELECTRONIC DEVICE” (FUJIFILM Corporation, priority 2020, published 2023).

Test: Solubility of photoacid generator in 100 g of solvent at 25° C.
Format: physicochemical
Details: in 100 g of PGME at 25° C.
Description: <Solubility (g) of Photoacid Generator in 100 g of Solvent at 25° C.>
“A”: The solubility is more than 3 g
“B”: The solubility is 0.5 to 3 g
“C”: The solubility is less than 0.5 g

c1ccc([S+]2CCCC2)cc1 [B-4]
Solubility (25° C.) of photoacid generator in solvent: A (The solubility is more than 3 g)
